Patent publication US20090258069A1, “Delivery of LFA-1 antagonists to the gastrointestinal system” (priority 2008, published 2009)

Test system: tester strains
Experiment: In vitro Ames bacterial reverse mutation assay
Assay type: cell-based
Details: presence or absence of microsomal (S9) enzymes
From the text: Therefore, Compound 12 was judged to be not mutagenic.

Compound: CS(=O)(=O)c1cccc(C[C@H](NC(=O)c2c(Cl)cc3c(c2Cl)CCN(C(=O)c2ccc4ccoc4c2)C3)C(=O)O)c1 [Compound 12]
- Ames assay, revertants per plate: not mutagenic
